The values below come from ChEMBL document CHEMBL1201862, “PubChem BioAssay data set” (2004).

The structures appear in SMILES notation.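 Briefly, cells in 96-well plates were exposed to five compound concentrations for 48 h, and endpoints were estimated by linear interpolation. GI50 is the concentration that inhibits growth by half.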 The source made the active and inactive calls. Cut-off read from the data, not from the text of the source: active = GI50 up to about 1.1 µM and inactive = higher.

Holding throughout (experiment): NCI-60 cell line screen, 48 h
Assay [1] has as its system COLO 205.
Assay [2] has as its system DLD-1.
Assay [3] concerns DMS-114.
In assay [4] the test system is HCT-15.
In assay [5] the test system is HL-60.
Assay [6] concerns IGROV-1.
Assay [7] relates to K562.
Assay [8] concerns M19-MEL.
In assay [9] the test system is NCI-H226.
Assay [10] deals with NCI-H460.
In assay [11] the test system is RPMI-8226.
Assay [12] has as its system RXF 393.
In assay [13] the test system is SF-295.
In assay [14] the test system is SN12C.
Assay [15] deals with SW-620.
In assay [16] the test system is UACC-257.
Assay [17] concerns CAKI-1.
Assay [18] relates to HCT-116.

As for `CCOC(=O)c1oc2ccc(OC)c3c2c1CCC3`, the GI50 in [1] is > 100 µM (inactive); in assay [2] it was 64.9 µM (inactive); in assay [3] it was > 100 µM (inactive); in [4] it was over 100 µM; in assay [5] it was > 100 µM (inactive); in assay [6], > 100 µM (inactive). In addition, the GI50 was 55 µM (inactive) in assay [7]; > 100 µM (inactive) in assay [8]; > 100 µM (inactive) in assay [9]; > 100 µM (inactive) in [10]; > 100 µM (inactive) in [11]; 70 µM (inactive) in assay [12]. Further, the GI50 was > 100 µM (inactive) in assay [13], > 100 µM (inactive) in assay [14], > 100 µM (inactive) in assay [15] and 13.7 µM (inactive) in [16].

Take `Cc1nc2c3c(ccc2nc1O)C(=O)c1ccccc1C3=O`: the GI50 in [17] is 25.3 µM (inactive); in [1] it was > 100 µM (inactive); in [2] it was 31.8 µM (inactive); in assay [3], 44.8 µM (inactive); in assay [18] it was 40 µM (inactive); in assay [4] it was 48 µM. The GI50 in assay [5] is > 100 µM (inactive); in assay [6], 42.9 µM (inactive); in assay [7], > 100 µM (inactive); in [8] it was > 100 µM (inactive); in assay [9] it was 29.2 µM (inactive); in [10], 37.2 µM (inactive). Further, the GI50 in assay [12] is 13.1 µM (inactive); in [13], > 100 µM (inactive); in [14], 42.2 µM (inactive); in assay [15] it was 56.2 µM (inactive); in assay [16], > 100 µM (inactive).

As to `CC(C)=CCOc1ccc(-c2coc3cc4c(c(O)c3c2=O)C=CC(C)(C)O4)cc1`, the GI50 in [1] is > 100 µM (inactive); in [2] it was 50.7 µM (inactive); in assay [3], 18.2 µM (inactive); in [18] it was 6.9 µM (inactive); in assay [4], 21 µM; in assay [5] it was > 100 µM (inactive). Also, the GI50 in assay [6] is 21.1 µM (inactive); in assay [7] it was 0.389 µM (active); in [8], 47.9 µM (inactive); in [9], > 100 µM (inactive); in [10] it was 63.2 µM (inactive); in assay [11], 27.3 µM (inactive). Also, the GI50 was > 100 µM (inactive) in assay [12]; 49.5 µM (inactive) in assay [13]; > 100 µM (inactive) in [14]; > 100 µM (inactive) in assay [15]; 14.3 µM (inactive) in assay [16].

On to `C/N=C(\N=c1/ss/c(=N\C)n1C)N(C)C.[O-][Cl+3]([O-])([O-])O`, for which the GI50 in [17] is 78.2 µM (inactive); in assay [1], 28.2 µM (inactive); in assay [2], 94.6 µM (inactive); in assay [3], > 100 µM (inactive); in [5] it was 43.5 µM (inactive); in [6], > 100 µM (inactive). Besides, the GI50 in assay [7] was 40.7 µM (inactive); in assay [8], > 100 µM (inactive); in assay [9] it was 45.2 µM (inactive); in [10], > 100 µM (inactive); in assay [11] it was 74.6 µM (inactive); in assay [12], > 100 µM (inactive). In addition, the GI50 was > 100 µM (inactive) in [13], > 100 µM (inactive) in assay [14], > 100 µM (inactive) in assay [15] and 97.3 µM (inactive) in assay [16].

`CCOc1ccccc1NC(=O)C(=O)Cc1nc2ccccc2s1`: the GI50 in [17] is > 100 µM (inactive); in [1] it was > 100 µM (inactive); in assay [2], > 100 µM (inactive); in assay [3], > 100 µM (inactive); in assay [18] it was > 100 µM (inactive); in assay [4] it was over 100 µM. Moreover, the GI50 in assay [5], in assay [6], in assay [8], in assay [9], in assay [10] and in assay [12] was > 100 µM (inactive) each time. In addition, the GI50 in assay [13], in [14], in assay [15] and in assay [16] was > 100 µM (inactive) in each case.
